Assay results from publication PMC3938723, “Learning from Host-Defense Peptides: Cationic, Amphipathic Peptoids with Potent Anticancer Activity” (PLoS ONE, 2014).
Non-standard residues stand in square brackets, D forms with d. Residues, ends and D or L forms follow the SMILES beside them. Nspe = C[C@H](NCC(=O)O)c1ccccc1; Nphe = O=C(O)CNCc1ccccc1; Nlys = NCCCCNCC(=O)O

Key:
[1] = tested on: Primary dermal fibroblast; assay: MTS cell viability assay, primary dermal fibroblasts; assay type: cell-based; settings: for LC50 Primary dermal fibroblast: 72 h
Description: (§1) MCF-7, MCF-7/TxT50 and OVCAR-3 (available in ATCC) were kindly provided by Professor Branimir Sikic's lab at Stanford University, and were cultured in McCoy's 5A media (GIBCO) with 10% FBS and antibiotics. Primary dermal fibroblasts were gifts from Lifeline Cell Technology and were cultured <6 passages according to the protocol Lifeline provides. All the cells were cultured in cell incubators (Thermo Scientific) at 37°C with 5% CO2.
(§2) This assay is a colorimetric method for determining the number of viable cells in proliferation. Aliquots of 100 µl media containing 1×10^4 cells were distributed into each well of a 96-well plate (BD Falcon). The following day, when cell density reaches about ∼40% confluency, the cell media were removed and replaced with serial dilutions of peptoid stocks in culturing media. For peptoid dilutions, peptoid stocks were initially diluted in media at 100 µM and then diluted by half in series using a multichannel pipette, and maintained in 100 µl media for each concentration with triple repeats. After peptoid solutions were transferred onto cells in 96-well plates, cells were incubated at 37°C for certain time periods. Then 20 µl of the CellTiter 96 Aqueous Non-Radioactive cell proliferation assay (Promega) reagent which contains a tetrazolium compound, [3-(4,5-dimethylthiazol-2-yl)-5-(3-carboxymethoxyphenyl)-2-(4-sulfophenyl)-2H-tetrazolium, inner salt; MTS(a)], was added to each well and cells were further incubated for 2 h to metabolize. The absorbance of formazan products were measured at 490 nm in a microplate reader (Molecular Devices). Percentage of cell viability = (A -A testblank)/(A control -A blank)×100, where A is the absorbance of the test well and A control the average absorbance of wells with cells not treated with peptoids. A testblank (media, MTS, and diluted peptoids) and A blank (media and MTS) were background absorbances measured in the absence of cells.
(§3) The activity and selectivity of these peptoids against cancer cells were evaluated in vitro. Their cytotoxicity was tested in three cancer cell lines, MCF-7 (human breast cancer), LNCaP (human prostate cancer), and OVCAR-3 (human ovarian cancer). To estimate the selectivity of these peptoids in vitro, hemolytic activities of some peptoids were cited from previously published work (Table 2 **column), and the MRC-5 cell line (human fibroblasts derived from fetal lung tissues) and primary dermal fibroblasts were also tested as normal cell controls. Briefly, cells were treated with peptoids diluted in culturing media for certain time periods, and then cell viability was measured via MTS assays.

MCF-7 (breast cancer) = assay: MTS cell viability assay, MCF-7; assay type: cell-based; settings: 72 h
Description: as §1, §2, §3

LNCaP (prostate cancer) = assay: MTS cell viability assay, LNCaP; assay type: cell-based; settings: 72 h
Description: as §2, §3

[2] = Analytical RP-HPLC elution as relative measure of molecular hydrophobicity; assay type: physicochemical; settings: percentage of acetonitrile at elution, analytic RP-HPLC, C18 column, linear water/acetonitrile (0.1% trifluoroacetic acid) gradient 5%-95% acetonitrile over 30 min
Source text: Peptoids were synthesized using an ABI 433A peptide synthesizer (Applied Biosystems, Inc.) on Rink amide MBHA resin (EMD Biosciences, Gibbstown, NJ) using the submonomer protocol, [24]. Briefly, the amine on the nascent chain is bromoacetylated or chloroacetylated followed by SN2 displacement of bromide or chloride by a primary amine to form the side chain. Resin-bound peptoids were then exposed to a mixture of trifluoroacetic acid (TFA): triisopropylsilane: water (95∶2.5∶2.5, volume ratio) for 10 minutes to cleave peptoids from the resin. Crude peptoids were purified by reversed-phase high performance liquid chromatography (RP-HPLC) (Waters Corporation) using a C18 column and a linear acetonitrile/water gradient. A final purity >95% as measured by analytical RP-HPLC (Waters Corporation) was achieved, and the identity of each peptoid was confirmed using electrospray ionization mass spectrometry (ESI/MS). Pexiganan was synthesized by standard Fmoc chemistry on an ABI 433A peptide synthesizer ([…]). Unless indicated otherwise, all reagents were purchased from Sigma Aldrich (St. Louis, MO). Among the submonomers used, Nspe was derived from (S)-N-(1-phenylethyl)amine; Npm from benzylamine ([…]); NHis from histamine (2-[4-imidazolyl]ethylamine); NLeu from isobutylamine; NLys from N-tert-butoxycarbonyl-1,4-butanediamine (CNH Technologies, MA). Guanidinylation of NLys was carried out according to the reported procedure. When NHis was used in the peptoid sequence, chloroacetic acid was used. 5(6)-Carboxyfluorescein was used to label the N-terminus of peptoid 1 [28].
Peptoids were utilized herein as a peptidomimetic scaffold to capture the cationic, amphipathic nature of anticancer peptides, as well as to improve molecular stability and to increase chemical diversity. The design of anticancer peptoids were derived from previous antimicrobial peptoids and were further optimized hererin to improve the activity and selectivity of peptoids against anionic membranes, [24], [25]. […] Several novel variants were designed based on peptoid 1 but with different charges, amphipathicity, length, and helicity to change their activity or selectivity. The sequences of these variants, the solvent composition at RP-HPLC elution as a relative measure of molecular hydrophobicity, molecular net charges and their charge-to-length ratio are summarized in Table 1. […] Pexiganan, a clinically-relevant peptide analog of magainin 2 which was developed for topical treatment for diabetic foot infection, and LL-37, the only known human cathelicidin which is a non-selective antimicrobial peptide, were also tested for comparison.

human red blood cells = settings: cited from earlier work
Source text: Table 2 Peptoid Cytotoxicity in cancer cell lines and control cells. | column: HC10 (µM) ** || The chain length is believed to influence not only the activity but also modes of action of cationic, amphipathic peptides, [34]. […] Thus we limited the chain length of peptoids to 13 residues at most, and studied 1 9mer which has the same charge-to-length ratio (CTLR) as peptoid ...

[3] = tested on: MRC-5 (fetal lung fibroblast); assay: MTS cell viability assay, MRC-5; assay type: cell-based; settings: 72 h
Description: as §1, §2, §3

OVCAR3 (ovarian cancer) = assay: MTS cell viability assay, OVCAR3; assay type: cell-based; settings: 72 h
Description: as §1, §2, §3

MCF-7/TxT50 cells = assay: MTS cell viability in multidrug-resistant MCF-7/TxT50 versus MCF-7; assay type: cell-based, human; settings: MTS assay, 72 h treatment
Description: as §1
This assay is a colorimetric method for determining the number of viable cells in proliferation. Aliquots of 100 µl media containing 1×10^4 cells were distributed into each well of a 96-well plate (BD Falcon). The following day, when cell density reaches about ∼40% confluency, the cell media were removed and replaced with serial dilutions of peptoid stocks in culturing media. […] The absorbance of formazan products were measured at 490 nm in a microplate reader (Molecular Devices). Percentage of cell viability = (A -A testblank)/(A control -A blank)×100, where A is the absorbance of the test well and A control the average absorbance of wells with cells not treated with peptoids. A testblank (media, MTS, and diluted peptoids) and A blank (media and MTS) were background absorbances measured in the absence of cells. […]
Figure 3 Activity of docetaxel and peptoids in MCF-7 and MCF-7/TxT50 cells. […] Cell viability was measured with MTS assays.

Structure (SMILES): C[C@@H](c1ccccc1)N(CC(=O)N(CC(=O)N(CCCCN)CC(=O)N(CC(=O)N(CC(=O)N(CCCCN)CC(=O)N(CC(=O)N(CC(=O)N(CCCCN)CC(=O)N(CC(=O)N(CC(N)=O)Cc1ccccc1)Cc1ccccc1)Cc1ccccc1)Cc1ccccc1)Cc1ccccc1)Cc1ccccc1)Cc1ccccc1)C(=O)CNCCCCN [1 achiral-Nspe2, H-NLys-Nspe-Npm-(NLys-Npm-Npm)3-NH2] (H-[Nlys][Nspe][Nphe][Nlys][Nphe][Nphe][Nlys][Nphe][Nphe][Nlys][Nphe][Nphe]-NH2)
- LC50 Primary dermal fibroblast [1]: 36 µM
- LC50 MCF-7 (breast cancer) (MCF-7 (breast cancer)): 13 µM
- LC50 LNCaP (prostate cancer) (LNCaP (prostate cancer)): 11 µM
- HPLC elution [2]: 60.8 % ACN
- HC10 (human red blood cells): 160 µM
- LC50 MRC-5 (fetal lung fibroblast) [3]: 22 µM
- LC50 OVCAR3 (ovarian cancer) (OVCAR3 (ovarian cancer)): 16 µM

Structure (SMILES): C[C@@H](c1ccccc1)N(CC(N)=O)C(=O)CN(C(=O)CN(CCCCN)C(=O)CN(Cc1ccccc1)C(=O)CN(Cc1ccccc1)C(=O)CN(CCCCN)C(=O)CN(C(=O)CN(C(=O)CN(CCCCN)C(=O)CN(Cc1ccccc1)C(=O)CN(Cc1ccccc1)C(=O)CNCCCCN)[C@@H](C)c1ccccc1)[C@@H](C)c1ccccc1)[C@@H](C)c1ccccc1 [1-Npm2,3,8,9, H-(NLys-Npm-Npm-NLys-Nspe-Nspe)2-NH2]
- LC50 Primary dermal fibroblast [1]: 21 µM
- LC50 MCF-7 (breast cancer) (MCF-7 (breast cancer)): 9 µM
- LC50 LNCaP (prostate cancer) (LNCaP (prostate cancer)): 10 µM
- HPLC elution [2]: 63.3 % ACN
- HC10 (human red blood cells): 80 µM
- LC50 MRC-5 (fetal lung fibroblast) [3]: 18 µM
- LC50 OVCAR3 (ovarian cancer) (OVCAR3 (ovarian cancer)): 11 µM

Structure (SMILES): CC(=O)O[C@@]12CO[C@@H]1C[C@H](O)[C@@]1(C)C(=O)[C@H](O)C3=C(C)[C@@H](OC(=O)[C@H](O)[C@@H](NC(=O)OC(C)(C)C)c4ccccc4)C[C@@](O)([C@@H](OC(=O)c4ccccc4)[C@H]21)C3(C)C [Docetaxel]
- activity in MCF-7/TxT50 (MDR1 overexpressing) compared to wild-type MCF-7 (MCF-7/TxT50 cells): resistant

Structure (SMILES): NCCCCNCC(=O)N(CC(=O)N(CC(=O)N(CCCCN)CC(=O)N(CC(=O)N(CC(=O)N(CCCCN)CC(=O)N(CC(=O)N(CC(=O)N(CCCCN)CC(=O)N(CC(=O)N(CC(N)=O)Cc1ccccc1)Cc1ccccc1)Cc1ccccc1)Cc1ccccc1)Cc1ccccc1)Cc1ccccc1)Cc1ccccc1)Cc1ccccc1 [1 achiral, H-(NLys-Npm-Npm)4-NH2] (H-[Nlys][Nphe][Nphe][Nlys][Nphe][Nphe][Nlys][Nphe][Nphe][Nlys][Nphe][Nphe]-NH2)
- LC50 Primary dermal fibroblast [1]: 39 µM
- selectivity ratio ([1]; LC50 in primary dermal fibroblast divided by LC50 in cancer cells): ~3
- LC50 MCF-7 (breast cancer) (MCF-7 (breast cancer)): 13 µM
- LC50 LNCaP (prostate cancer) (LNCaP (prostate cancer)): 11 µM
- HPLC elution [2]: 59.8 % ACN
- HC10 (human red blood cells): 183 µM
- LC50 MRC-5 (fetal lung fibroblast) [3]: 30 µM
- LC50 OVCAR3 (ovarian cancer) (OVCAR3 (ovarian cancer)): 16 µM

Structure (SMILES): C[C@@H](c1ccccc1)N(CC(N)=O)C(=O)CN(CCCCN)C(=O)CN(CCCCN)C(=O)CN(C(=O)CN(C(=O)CN(CCCCN)C(=O)CN(C(=O)CN(CCCCN)C(=O)CN(CCCCN)C(=O)CN(C(=O)CN(C(=O)CNCCCCN)[C@@H](C)c1ccccc1)[C@@H](C)c1ccccc1)[C@@H](C)c1ccccc1)[C@@H](C)c1ccccc1)[C@@H](C)c1ccccc1 [1-NLys5,11, H-(NLys-Nspe-Nspe-NLys-NLys-Nspe)2-NH2] (H-[Nlys][Nspe][Nspe][Nlys][Nlys][Nspe][Nlys][Nspe][Nspe][Nlys][Nlys][Nspe]-NH2)
- LC50 Primary dermal fibroblast [1]: 34 µM
- LC50 MCF-7 (breast cancer) (MCF-7 (breast cancer)): 31 µM
- LC50 LNCaP (prostate cancer) (LNCaP (prostate cancer)): 25 µM
- HPLC elution [2]: 51.2 % ACN
- HC10 (human red blood cells): >100 µM
- LC50 MRC-5 (fetal lung fibroblast) [3]: 41 µM
- LC50 OVCAR3 (ovarian cancer) (OVCAR3 (ovarian cancer)): 37 µM

Structure (SMILES): C[C@@H](c1ccccc1)N(CC(N)=O)C(=O)CN(CCCCN)C(=O)CN(C(=O)CN(C(=O)CN(CCCCN)C(=O)CN(C(=O)CN(C(=O)CN(CCCCN)C(=O)CN(C(=O)CN(C(=O)CNCCCCN)[C@@H](C)c1ccccc1)[C@@H](C)c1ccccc1)[C@@H](C)c1ccccc1)[C@@H](C)c1ccccc1)[C@@H](C)c1ccccc1)[C@@H](C)c1ccccc1 [1 11mer, H-(NLys-Nspe-Nspe)3-NLys-Nspe-NH2] (H-[Nlys][Nspe][Nspe][Nlys][Nspe][Nspe][Nlys][Nspe][Nspe][Nlys][Nspe]-NH2)
- LC50 Primary dermal fibroblast [1]: 19 µM
- LC50 MCF-7 (breast cancer) (MCF-7 (breast cancer)): 11 µM
- LC50 LNCaP (prostate cancer) (LNCaP (prostate cancer)): 10 µM
- HPLC elution [2]: 63.5 % ACN
- HC10 (human red blood cells): 103 µM
- LC50 MRC-5 (fetal lung fibroblast) [3]: 24 µM
- LC50 OVCAR3 (ovarian cancer) (OVCAR3 (ovarian cancer)): 10 µM

Structure (SMILES): C[C@@H](c1ccccc1)N(CC(=O)N(CCCCN)CC(=O)N(CC(=O)N(CC(=O)N(CCCCN)CC(=O)N(CC(=O)N(CC(=O)N(CCCCN)CC(=O)N(CC(=O)N(CC(=O)N(CCCCN)CC(N)=O)[C@@H](C)c1ccccc1)[C@@H](C)c1ccccc1)[C@@H](C)c1ccccc1)[C@@H](C)c1ccccc1)[C@@H](C)c1ccccc1)[C@@H](C)c1ccccc1)C(=O)CN(C(=O)CNCCCCN)[C@@H](C)c1ccccc1 [1 13mer, H-(NLys-Nspe-Nspe)4-NLys-NH2] (H-[Nlys][Nspe][Nspe][Nlys][Nspe][Nspe][Nlys][Nspe][Nspe][Nlys][Nspe][Nspe][Nlys]-NH2)
- LC50 Primary dermal fibroblast [1]: 14 µM
- LC50 MCF-7 (breast cancer) (MCF-7 (breast cancer)): 8 µM
- LC50 LNCaP (prostate cancer) (LNCaP (prostate cancer)): 8 µM
- HPLC elution [2]: 62.8 % ACN
- HC10 (human red blood cells): 21 µM
- LC50 MRC-5 (fetal lung fibroblast) [3]: 10 µM
- LC50 OVCAR3 (ovarian cancer) (OVCAR3 (ovarian cancer)): 9 µM
